Reference: the NIST ThermoML archive (doi:10.1021/je020215j)

Conditions: Crystal

O=[N+]([O-])c1cnc(O)nc1O [2,4-pyrimidinedione, 5-nitro-]
Conditions	vapor or sublimation pressure [kPa]
431.25 K	7.18e-06
433.14 K	8.41e-06
434.95 K	9.75e-06
434.98 K	1.014e-05
436.81 K	1.154e-05
438.63 K	1.3e-05
440.46 K	1.62e-05
442.17 K	2.096e-05
442.27 K	1.978e-05
445.93 K	2.924e-05
447.76 K	3.338e-05
453.11 K	6.104e-05

Nc1cc(O)nc(O)n1 [6-aminouracil]
Conditions	vapor or sublimation pressure [kPa]
478.6 K	1.394e-05
478.61 K	1.375e-05
480.4 K	1.661e-05
482.16 K	1.922e-05
483.92 K	2.132e-05
485.6 K	2.413e-05
485.7 K	2.415e-05
487.5 K	2.821e-05
489.24 K	3.158e-05
491 K	3.515e-05
491.02 K	3.534e-05
492.65 K	4.176e-05

Cn1c(N)cc(=O)n(C)c1=O [6-amino-1,3-dimethyluracil]
Conditions	vapor or sublimation pressure [kPa]
401.59 K	9.9e-06
407.21 K	1.673e-05
409 K	1.845e-05
409.99 K	2.309e-05
410.8 K	2.478e-05
412.67 K	2.874e-05
412.82 K	3.133e-05
415.86 K	4.477e-05
416.43 K	3.968e-05
418.41 K	5.345e-05
420.22 K	6.082e-05
425.66 K	0.0001053

Cn1c(N)cc(=O)[nH]c1=O [6-amino-1-methyluracil]
Conditions	vapor or sublimation pressure [kPa]
456.84 K	2.824e-05
458.65 K	3.188e-05
459.55 K	3.807e-05
462.22 K	4.621e-05
463.15 K	5.015e-05
464.07 K	5.429e-05
466.07 K	6.44e-05
466.1 K	6.38e-05
467.87 K	7.507e-05
468.75 K	7.967e-05
469.67 K	8.597e-05
470.56 K	9.083e-05

Nc1c[nH]c(=O)[nH]c1=O [2,4(1H,3H)-pyrimidinedione, 5-amino-]
Conditions	vapor or sublimation pressure [kPa]
433.11 K	1.941e-05
433.16 K	2.072e-05
436.7 K	2.56e-05
438.65 K	3.333e-05
440.48 K	3.89e-05
442.32 K	4.794e-05
444.14 K	5.231e-05
445.07 K	5.373e-05
445.96 K	6.018e-05
445.97 K	5.707e-05
447.76 K	6.664e-05
453.1 K	9.97e-05
